Test results: US20040224995A1 (University of North Texas Health Science Center at Fort …, priority 2003, published 2004)

Assays:
[1] = tested on: γ-glutamyl-cysteine synthetase (GCS) catalytic and regulatory subunits; assay: Western blot of GCS subunits in HT-22 cells; assay type: cell-based, mouse; details: compound 24 h before glutamate or H2O2, also independent of glutamate
Experimental: Determining γ-glutamylcysteine synthetase (“GCS”) protein levels was determined using Western blotting analysis, as shown in FIGS. 28 and 29. Antibodies against the heavy (catalytic) and light (regulatory) subunits, GCSH and GCSL, respectively, were ordered from Santa Cruz Biotechnology, Santa Cruz, Calif. Anti-β-actin polyclonal antibody was obtained from Biomedical Technologies Inc. (Stoughton, Mass.). Cyclopentenone PGs treated and untreated HT-22, C6, and RGC-5 cells were homogenized in a buffer containing 20 mM HEPES, pH 7.4, 2 mM […], 1 mM EGTA, […], 2 mm DTE, and […] aprotonin. Cells were sonicated to disrupt cell membranes, and Triton X-100 was added to a final concentration of 0.05% to solubilize membrane bound proteins. Equal amounts of proteins, as determined by the Bradford method, were separated by SDS-PAGE and transferred to polyvinylidene fluoride membrane (Millipore, Bedford, Mass.) in a BiORad (Hercules, Calif.) trans-Blot electrophoresis apparatus at 100 V for 2 hr using Towbin's buffer [25 mm Tris, pH 8.3, 192 mM glycine, and 20% methanol]. […] Equal amounts of proteins, as determined by the Bradford method, were separated by SDS-PAGE and transferred to PVDF membrane. […] […]

[2] = tested on: ischemic lesion after MCAO; assay: Middle cerebral artery occlusion (MCAO) in ovariectomized female rats; assay type: in vivo, rat
Description: (§1) Evaluating the role of cyclopentenone PGs and TZD's has also been completed in vivo. […] Troglitazone reduced the resulting infarct size by about 50% compared to vehicle (corn oil treated animals). This effective protection from a transient focal ischemic event by troglitazone argues that selective PPARγ agonists may be useful neuroprotectants during neurodegenerative events (e.g. stroke).
(§2) As shown below, the results from our experiments comprise results that indicate potent neuroprotective TZD's, as were used in neuronal cell lines are also effective in an animal model. Although not wanting to be bound by theory, the rat is the appropriate animal model for assessing the effects of drugs on neuronal damage, as the compounds to be evaluated are intended for use in humans. […] Female Sprague Dawley rats were purchased from Harlan in Indianapolis, Ind. Rats were housed in pairs in hanging, stainless steel cages in a temperature-controlled rooms (25±1° C.) with a daily light cycle (on from 0700 to 1900 h daily). All rats were allowed free access to laboratory chow and tap water. All procedures performed on animals will were reviewed and approved by the University of North Texas Health Science Center Institutional Animal Care and Use Committee (“ACUC”).
(§3) The female Sprague Dawley rats (225-250 g BW) were bilaterally ovariectomized using a dorsal approach. Animals were anesthetized with ketamine ([…]) and xylazine (10 mg/kg). A small (1 cm) cut was made through the skin, fascia, and muscle. […] Percent ischemic lesion area was calculated. * indicates p<0.05 vs. respective control group. […]
(§4) Each group of animals was decapitated 24 h after MCAO. […] Slices were then fixed in a 10% formalin and photographed by a digital camera (Sony MVC-FD5), and the ischemic lesion area were determined for each slice using the Image-Pro Plus software (Media Cybernectics, Silver Spring, Md.). Percent ischemic lesion area was calculated as the sum of the ischemic lesion area for the five slices divided by the total cross sectional area of these five slices.

[3] = as above; assay type: in vivo, rat; details: rats, doses given prior to MCA occlusion
Description: as §1, §2, §3, §4

| SMILES | expression of catalytic (C) and regulatory (R) subunits of GCS [1] | reduction of infarct size compared to vehicle ([2]; rats treated prior to MCA occlusion, vehicle corn oil) | reduction of ischemic lesion area compared to control animals ([2]; s.c. injection 12 h and 2 h before MCAO, 60 min occlusion, 24 h reperfusion) | brain concentrations [3] |
| --- | --- | --- | --- | --- |
| CCCCC/C=C/C=C1/C(=O)C=C[C@@H]1C/C=C\CCCC(=O)O [15d-PGJ2, 15-deoxy-Δ^12,14-PGJ2] | upregulates |  |  |  |
| Cc1c(C)c2c(c(C)c1O)CCC(C)(COc1ccc(CC3SC(=O)NC3=O)cc1)O2 (stereo not shown) [troglitazone] |  | about 50% | about 50% | about 7 μM |
